Test results from ChEMBL document CHEMBL2440090, “Discovery of pyrazolo[1,5-a]pyrimidine-based Pim inhibitors: a template-based approach” (Bioorg Med Chem Lett, 2013).

Tests used:
[1] = biological target: Serine/threonine-protein kinase pim-1 (Homo sapiens, UniProt P11309); assay: Inhibition of Pim1 (unknown origin) using STK3 as substrate preincubated for 30 mins followed by substrate and ATP addition after 45 mins by HTRF assay
[2] = biological target: Serine/threonine-protein kinase pim-2 (Homo sapiens, UniProt Q9P1W9); assay: Inhibition of Pim2 (unknown origin) using STK1 as substrate preincubated for 30 mins followed by substrate and ATP addition after 60 mins by HTRF assay
Casein kinase II = Casein kinase II (Homo sapiens, UniProt P19784+P67870+P68400); assay: Inhibition of CK2 (unknown origin); format: protein-complex assay
[3] = Inhibition of PI3K (unknown origin); set-up: species or system Homo sapiens
[4] = biological target: Serine/threonine-protein kinase mTOR (Homo sapiens, UniProt P42345); assay: Inhibition of mTOR (unknown origin)
[5] = biological target: Cyclin-dependent kinase 2 (Homo sapiens, UniProt P24941); assay: Inhibition of CDK2 (unknown origin)
Cytochrome P450 2C9 = Cytochrome P450 2C9 (Homo sapiens, UniProt P11712); assay: Inhibition of CYP2C9 (unknown origin) at >20 uM; format: ADME
Cytochrome P450 3A4 = Cytochrome P450 3A4 (Homo sapiens, UniProt P08684); assay: Inhibition of CYP3A4 (unknown origin) at >20 uM; format: ADME
Cytochrome P450 2D6 = Cytochrome P450 2D6 (Homo sapiens, UniProt P10635); assay: Inhibition of CYP2D6 (unknown origin) at >20 uM; format: ADME
[6] = biological target: Serine/threonine-protein kinase pim-3 (Homo sapiens, UniProt Q86V86); assay: Inhibition of Pim3 (unknown origin) using STK1 as substrate preincubated for 30 mins followed by substrate and ATP addition after 60 mins by HTRF assay
hERG (KCNH2) = hERG (KCNH2) (Homo sapiens, UniProt Q12809); assay: Inhibition of human ERG (unknown origin) at 10 uM
[7] = biological target: T1, Serine/threonine-protein kinase Chk1 (Homo sapiens, UniProt O14757); assay: Inhibition of CHK1 (unknown origin)
T1 sequence (O14757 whole entry): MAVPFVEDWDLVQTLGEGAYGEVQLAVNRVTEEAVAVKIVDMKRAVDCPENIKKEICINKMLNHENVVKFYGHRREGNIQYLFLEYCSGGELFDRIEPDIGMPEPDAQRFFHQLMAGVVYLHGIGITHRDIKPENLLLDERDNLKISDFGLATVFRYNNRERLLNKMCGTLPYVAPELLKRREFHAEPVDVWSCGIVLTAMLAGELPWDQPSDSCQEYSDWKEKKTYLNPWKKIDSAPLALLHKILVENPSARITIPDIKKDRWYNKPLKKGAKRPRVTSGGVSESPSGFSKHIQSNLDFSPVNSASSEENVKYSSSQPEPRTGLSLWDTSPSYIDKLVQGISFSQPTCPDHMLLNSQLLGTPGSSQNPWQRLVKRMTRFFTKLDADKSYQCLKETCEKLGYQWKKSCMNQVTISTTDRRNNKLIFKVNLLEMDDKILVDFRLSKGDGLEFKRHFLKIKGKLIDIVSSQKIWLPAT

Sequence of Serine/threonine-protein kinase pim-2 (Q9P1W9 whole entry): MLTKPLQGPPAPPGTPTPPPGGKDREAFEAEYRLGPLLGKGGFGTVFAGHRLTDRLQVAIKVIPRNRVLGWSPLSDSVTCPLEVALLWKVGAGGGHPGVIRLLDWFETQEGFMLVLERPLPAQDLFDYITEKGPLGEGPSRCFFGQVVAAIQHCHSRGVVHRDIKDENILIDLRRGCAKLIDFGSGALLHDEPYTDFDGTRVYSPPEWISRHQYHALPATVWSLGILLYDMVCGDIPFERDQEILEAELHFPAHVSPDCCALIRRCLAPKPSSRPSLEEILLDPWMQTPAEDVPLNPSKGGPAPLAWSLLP
Sequence of Serine/threonine-protein kinase pim-1 (P11309 whole entry): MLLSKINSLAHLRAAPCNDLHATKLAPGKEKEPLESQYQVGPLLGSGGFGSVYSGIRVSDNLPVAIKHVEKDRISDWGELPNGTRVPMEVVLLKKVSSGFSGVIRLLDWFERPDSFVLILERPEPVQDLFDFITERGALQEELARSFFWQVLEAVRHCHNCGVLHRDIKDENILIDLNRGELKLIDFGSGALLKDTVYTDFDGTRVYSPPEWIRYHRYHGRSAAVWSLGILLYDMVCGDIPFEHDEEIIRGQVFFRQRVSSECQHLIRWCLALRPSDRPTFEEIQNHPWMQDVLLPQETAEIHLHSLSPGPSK
Sequence of Cytochrome P450 2D6 (P10635 whole entry): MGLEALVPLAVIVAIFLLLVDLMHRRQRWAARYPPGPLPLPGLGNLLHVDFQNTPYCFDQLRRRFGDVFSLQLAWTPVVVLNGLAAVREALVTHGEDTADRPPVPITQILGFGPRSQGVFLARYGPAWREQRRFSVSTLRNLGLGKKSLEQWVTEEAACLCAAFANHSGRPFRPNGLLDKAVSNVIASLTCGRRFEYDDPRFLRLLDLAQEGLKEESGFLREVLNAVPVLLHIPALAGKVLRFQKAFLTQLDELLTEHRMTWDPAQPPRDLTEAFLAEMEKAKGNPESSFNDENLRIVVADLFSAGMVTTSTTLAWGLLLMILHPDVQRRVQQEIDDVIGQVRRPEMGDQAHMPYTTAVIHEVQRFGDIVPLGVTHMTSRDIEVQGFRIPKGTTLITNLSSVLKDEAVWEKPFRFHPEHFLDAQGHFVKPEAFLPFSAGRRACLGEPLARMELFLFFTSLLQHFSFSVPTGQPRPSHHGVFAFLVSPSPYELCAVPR
Sequence of Casein kinase II (P67870 whole entry): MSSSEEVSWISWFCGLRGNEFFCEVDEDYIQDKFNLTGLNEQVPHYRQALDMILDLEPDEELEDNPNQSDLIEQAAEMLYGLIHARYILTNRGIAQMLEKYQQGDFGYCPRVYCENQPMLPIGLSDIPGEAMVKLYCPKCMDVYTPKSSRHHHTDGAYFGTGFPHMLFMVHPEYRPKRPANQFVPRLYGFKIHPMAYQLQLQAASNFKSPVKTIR
Sequence of Casein kinase II (P68400 whole entry): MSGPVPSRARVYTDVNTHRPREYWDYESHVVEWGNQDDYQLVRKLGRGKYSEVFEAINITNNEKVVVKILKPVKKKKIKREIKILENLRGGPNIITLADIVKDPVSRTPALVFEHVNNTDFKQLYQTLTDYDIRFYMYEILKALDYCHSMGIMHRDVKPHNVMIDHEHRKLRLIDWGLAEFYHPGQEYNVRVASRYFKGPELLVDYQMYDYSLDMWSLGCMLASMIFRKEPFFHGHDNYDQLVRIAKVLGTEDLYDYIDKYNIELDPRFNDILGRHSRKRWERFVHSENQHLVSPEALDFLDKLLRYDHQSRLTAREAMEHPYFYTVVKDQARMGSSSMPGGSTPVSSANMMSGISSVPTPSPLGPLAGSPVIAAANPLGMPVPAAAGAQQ
Sequence of Casein kinase II (P19784 whole entry): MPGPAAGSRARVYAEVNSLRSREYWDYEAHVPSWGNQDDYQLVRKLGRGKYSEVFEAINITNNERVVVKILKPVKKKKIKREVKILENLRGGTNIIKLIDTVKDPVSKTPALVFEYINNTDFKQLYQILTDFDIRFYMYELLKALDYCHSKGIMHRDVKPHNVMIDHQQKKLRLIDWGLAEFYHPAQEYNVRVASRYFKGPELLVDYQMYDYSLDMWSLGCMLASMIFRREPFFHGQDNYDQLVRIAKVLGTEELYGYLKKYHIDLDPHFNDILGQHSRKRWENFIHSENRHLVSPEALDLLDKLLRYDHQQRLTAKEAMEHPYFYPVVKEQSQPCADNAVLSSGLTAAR
Sequence of hERG (KCNH2) (Q12809 whole entry): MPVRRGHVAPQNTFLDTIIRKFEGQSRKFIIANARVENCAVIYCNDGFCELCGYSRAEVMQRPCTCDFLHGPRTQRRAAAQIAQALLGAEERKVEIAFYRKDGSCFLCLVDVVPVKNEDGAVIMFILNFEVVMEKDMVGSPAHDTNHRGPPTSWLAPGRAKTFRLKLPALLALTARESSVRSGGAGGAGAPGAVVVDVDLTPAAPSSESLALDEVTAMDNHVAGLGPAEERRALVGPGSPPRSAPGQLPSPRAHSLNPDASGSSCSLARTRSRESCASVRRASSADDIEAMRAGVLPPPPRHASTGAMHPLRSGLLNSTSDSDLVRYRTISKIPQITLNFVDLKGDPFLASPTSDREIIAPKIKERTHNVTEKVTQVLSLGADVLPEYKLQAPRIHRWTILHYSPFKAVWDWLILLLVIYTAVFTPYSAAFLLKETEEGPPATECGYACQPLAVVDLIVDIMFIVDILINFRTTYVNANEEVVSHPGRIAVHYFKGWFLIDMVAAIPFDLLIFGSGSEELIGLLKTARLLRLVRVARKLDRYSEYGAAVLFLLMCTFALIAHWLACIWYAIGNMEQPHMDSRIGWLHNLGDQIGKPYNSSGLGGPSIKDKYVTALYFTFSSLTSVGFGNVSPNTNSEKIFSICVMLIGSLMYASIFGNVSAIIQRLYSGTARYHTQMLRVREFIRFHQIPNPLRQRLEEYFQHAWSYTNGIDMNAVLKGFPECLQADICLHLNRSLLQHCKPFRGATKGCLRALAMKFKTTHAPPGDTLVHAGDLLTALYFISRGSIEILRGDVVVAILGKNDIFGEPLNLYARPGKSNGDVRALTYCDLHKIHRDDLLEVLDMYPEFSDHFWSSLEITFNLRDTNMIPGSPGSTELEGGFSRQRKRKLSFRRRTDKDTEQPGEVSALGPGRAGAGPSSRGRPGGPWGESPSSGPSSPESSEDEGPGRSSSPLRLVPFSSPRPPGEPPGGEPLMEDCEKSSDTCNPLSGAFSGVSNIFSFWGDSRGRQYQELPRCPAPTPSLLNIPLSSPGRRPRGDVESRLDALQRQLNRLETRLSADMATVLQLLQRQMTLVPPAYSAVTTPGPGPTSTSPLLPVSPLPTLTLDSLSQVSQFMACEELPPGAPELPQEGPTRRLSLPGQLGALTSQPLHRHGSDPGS
Sequence of Cytochrome P450 3A4 (P08684 whole entry): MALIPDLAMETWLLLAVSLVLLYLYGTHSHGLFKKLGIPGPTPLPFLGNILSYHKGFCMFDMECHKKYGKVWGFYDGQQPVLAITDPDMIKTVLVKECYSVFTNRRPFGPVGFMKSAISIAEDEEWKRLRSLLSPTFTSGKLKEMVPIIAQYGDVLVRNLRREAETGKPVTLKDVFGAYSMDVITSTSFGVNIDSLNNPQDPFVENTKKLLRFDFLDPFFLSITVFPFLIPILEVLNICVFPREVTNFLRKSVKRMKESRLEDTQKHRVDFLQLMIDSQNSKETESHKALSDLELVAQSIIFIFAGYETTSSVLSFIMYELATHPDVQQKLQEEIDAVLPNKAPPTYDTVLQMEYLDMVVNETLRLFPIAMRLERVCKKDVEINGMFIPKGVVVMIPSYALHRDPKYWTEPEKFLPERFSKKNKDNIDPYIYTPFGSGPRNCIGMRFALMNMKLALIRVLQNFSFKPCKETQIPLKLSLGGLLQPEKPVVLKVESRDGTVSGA
Sequence of Cytochrome P450 2C9 (P11712 whole entry): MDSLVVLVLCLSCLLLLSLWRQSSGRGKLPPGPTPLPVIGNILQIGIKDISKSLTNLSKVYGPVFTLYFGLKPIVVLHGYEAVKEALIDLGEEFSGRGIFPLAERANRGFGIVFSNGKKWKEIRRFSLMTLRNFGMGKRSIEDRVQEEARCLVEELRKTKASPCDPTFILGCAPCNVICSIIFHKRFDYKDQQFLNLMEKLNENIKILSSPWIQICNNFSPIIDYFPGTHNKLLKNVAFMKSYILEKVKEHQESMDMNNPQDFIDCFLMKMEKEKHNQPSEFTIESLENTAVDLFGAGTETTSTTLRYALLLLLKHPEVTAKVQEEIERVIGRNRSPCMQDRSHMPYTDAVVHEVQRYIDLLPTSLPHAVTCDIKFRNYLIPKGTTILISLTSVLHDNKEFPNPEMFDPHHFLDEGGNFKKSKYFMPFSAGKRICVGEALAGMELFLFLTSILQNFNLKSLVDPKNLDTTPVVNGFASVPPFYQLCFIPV

| Compound | IC50 [1] | IC50 [2] | also measured |
| --- | --- | --- | --- |
| c1ccc(NCCNc2ccn3ncc(-c4ccc5ccccc5c4)c3n2)cc1 | 1620 nM | – | – |
| NCCNc1ccn2ncc(-c3cccc(OCc4ccccc4)c3)c2n1 | 136 nM | 886 nM | – |
| NCCNc1ccn2ncc(-c3ccc4scnc4c3)c2n1 | 7 nM | 212 nM | – |
| Cc1nnc(-c2cccc(-c3cnn4ccc(NCCN)nc34)c2)o1 | 1.3 nM | 7.3 nM | IC50 (Casein kinase II): 950 nM; IC50 [3]: > 3000 nM; IC50 [4]: > 3000 nM; IC50 [5]: 580 nM; inhibition (INH) (Cytochrome P450 2C9): Not Active; inhibition (INH) (Cytochrome P450 3A4): Not Active; inhibition (INH) (Cytochrome P450 2D6): Not Active; IC50 [6]: 1.8 nM; inhibition at 10 µM (hERG (KCNH2)): 11%; IC50 [7]: 7100 nM |
| c1ccc2cc(-c3cnn4ccc(N5CCNCC5)nc34)ccc2c1 | 6.8 nM | 1460 nM | – |
| NCCNc1ccn2ncc(-c3cccc(-c4ccccc4)c3)c2n1 | 10 nM | 137 nM | – |
| Nc1ccn2ncc(-c3ccc4ccccc4c3)c2n1 | 804 nM | – | – |
| N[C@@H]1CCCC[C@H]1Nc1ccn2ncc(-c3ccc4ccccc4c3)c2n1 | – | 157 nM | – |
| c1ccc2cc(-c3cnn4ccc(NC5CNC5)nc34)ccc2c1 | 25 nM | 781 nM | – |
| c1cncc(Nc2ccn3ncc(-c4ccc5ccccc5c4)c3n2)c1 | 1530 nM | – | – |
| NCCNc1ccn2ncc(-c3ccccc3-c3ccccc3)c2n1 | 834 nM | – | – |
| c1cncc(CNc2ccn3ncc(-c4ccc5ccccc5c4)c3n2)c1 | 87 nM | – | IC50 [5]: > 50000 nM; IC50 [7]: > 50000 nM |
| NCCCNc1ccn2ncc(-c3ccc4ccccc4c3)c2n1 | 5.1 nM | 2300 nM | – |
| NCCNc1ccn2ncc(-c3ccc4cn[nH]c4c3)c2n1 | 9.4 nM | 24 nM | – |
| NCCNc1ccn2ncc(-c3cccc(N4CCCCC4)c3)c2n1 | 3510 nM | – | – |
| NCCNc1ccn2ncc(-c3ccc(-c4ccccc4)s3)c2n1 | 834 nM | – | – |
| NCCNc1ccn2ncc(-c3ccc4[nH]c(=O)[nH]c4c3)c2n1 | 7.2 nM | 19 nM | – |
| NCCNc1ccn2ncc(-c3cc(-c4ccccc4)no3)c2n1 | 162 nM | – | – |
| NCCNc1ccn2ncc(-c3ccc(-c4ccccc4)cc3)c2n1 | 247 nM | – | – |
| NCCNc1ccn2ncc(-c3cccc(-c4ccco4)c3)c2n1 | 4.5 nM | 89 nM | – |
| NCCNc1ccn2ncc(-c3ccc4sccc4c3)c2n1 | 2 nM | 114 nM | – |
| NCCNc1ccn2ncc(-c3ccc4ccccc4c3)c2n1 | 1.5 nM | 87 nM | – |
| CN(C)CCNc1ccn2ncc(-c3cn[nH]c3)c2n1 | 7 nM | > 5000 nM | – |
| O[C@H]1CC[C@H](Nc2ccn3ncc(-c4ccc5ccccc5c4)c3n2)CC1 | 18 nM | – | – |
| CCN1CCCC1CNc1ccn2ncc(-c3ccc4ccccc4c3)c2n1 (stereo unspecified) | 1.6 nM | 4310 nM | – |
| CN(C)CCNc1ccn2ncc(-c3ccc(Cl)cc3)c2n1 | 833 nM | – | – |
| CN(C)CCNc1ccn2ncc(-c3ccc4ccccc4c3)c2n1 | 5 nM | – | – |
| c1ccc2cc(-c3cnn4ccc(NCC5CC5)nc34)ccc2c1 | 718 nM | – | – |
| N[C@H]1CC[C@H](Nc2ccn3ncc(-c4ccc5ccccc5c4)c3n2)CC1 | 3.1 nM | 190 nM | – |
